Laboratory results from US7064128B2, “Preferentially substituted calcium channel blockers” (NeuroMed Technologies, Inc., priority 1998, dated 2006).
Where two headings read alike, the source gives them in different places.

Assays:
Type in all cases: cell-based
[1] = target: P/Q-type channels (α1A+α2δ+β1b cDNA subunits) (UniProt P54282); assay: Whole cell patch clamp, tonic and frequency dependent block, P/Q-type channels in HEK 293 (Example 5)
Experimental: (§1) N-type calcium channel blocking activity was assayed in human embryonic kidney cells, HEK 293, stably transfected with the rat brain N-type calcium channel subunits (α1B+α2δ+β1b cDNA subunits). Alternatively, N-type calcium channels (α1B+α2δ+β1b cDNA subunits), L-type channels (α1C+α2δ+β1b cDNA subunits) and P/Q-type channels (α1A+α2δ+β1b cDNA subunits) were transiently expressed in HEK 293 cells. Briefly, cells were cultured in Dulbecco's modified eagle medium (DMEM) supplemented with 10% fetal bovine serum, 200 U/ml penicillin and 0.2 mg/ml streptomycin at 37° C. with 5% CO2. At 85% confluency cells were split with 0.25% trypsin/1 mM EDTA and plated at 10% confluency on glass coverslips. At 12 hours the medium was replaced and the cells transiently transfected using a standard calcium phosphate protocol and the appropriate calcium channel cDNAs. Fresh DMEM was supplied and the cells transferred to 28° C./5% CO2. Cells were incubated for 1 to 2 days to whole cell recording.
(§2) Whole cell patch clamp experiments were performed using an Axopatch 200B amplifier (Axon Instruments, Burlingame, Calif.) linked to a personal computer equipped with pCLAMP software. The external and internal recording solutions contained, respectively, 5 mM BaCl2, 1 mM MgCl2, 10 mM HEPES, 40 mM TEACl, 10 mM glucose, 87.5 mM CsCl (pH 7.2) and 108 mM CsMS, 4 mM MgCl2, 9 mM EGTA, 9 mM HEPES (pH 7.2). Currents were typically elicited from a holding potential of −80 mV to +10 mV using Clampex software (Axon Instruments). Typically, currents were first elicited with low frequency stimulation (0.03 Hz) and allowed to stabilize prior to application of the compounds. The compounds were then applied during the low frequency pulse trains for two to three minutes to assess tonic block, and subsequently the pulse frequency was increased to 0.2 Hz to assess frequency dependent block. Data were analyzed using Clampfit (Axon Instruments) and SigmaPlot 4.0 (Jandel Scientific).
(§3) Tables 2 and 3 show the results of similar experiments conducted with P/Q-type and L-type channels expressed in HEK 293 cells.

[2] = test system: P/Q-type channels (α1A+α2δ+β1b cDNA subunits); assay: as above; conditions: in general
Experimental: as §1, §2, §3

[3] = target: T1, N-type calcium channels (α1B+α2δ+β1b cDNA subunits) (Rattus norvegicus, UniProt Q02294); assay: Whole cell patch clamp, tonic and frequency dependent block, N-type channels in HEK 293 (Example 5); conditions: for % Block (100 nM) 0.03 Hz: 0.03 Hz (tonic block); for % Block (100 nM) 0.2 Hz: 0.2 Hz (frequency dependent block)
T1 construct: expressed in transfected cells
Experimental: as §1, §2

[4] = target: T2, L-type channels (α1C+α2δ+β1b cDNA subunits) (UniProt P22002); assay: Whole cell patch clamp, tonic and frequency dependent block, L-type channels in HEK 293 (Example 5)
T2 construct: other: α1C (L-type), 100 nM, 0.03 Hz; other: α1C (L-type), 100 nM, 0.2 Hz; other: α1C (L-type), 0.03 Hz; other: α1C (L-type), 0.2 Hz
Experimental: as §1, §2, §3

[5] = test system: L-type channels (α1C+α2δ+β1b cDNA subunits); assay: as above; conditions: in general
Experimental: as §1, §2, §3

[6] = Table 4 summary, 0.2 Hz, P/Q-type, unit not given in Table 4 (μM in Table 2), read-out: P/Q (IC50 values)
[7] = α1A (P/Q-type), 0.03 Hz, read-out: Estimated IC50 (μM) 0.03 Hz
[8] = α1A (P/Q-type), 0.2 Hz, read-out: Estimated IC50 (μM) 0.2 Hz
[9] = Table 4 summary, 0.2 Hz, N-type, unit not given in Table 4 (μM in Table 1), read-out: N (IC50 values)
[10] = α1B (N-type), 0.03 Hz, read-out: Estimated IC50 (μM) 0.03 Hz
[11] = α1B (N-type), 0.2 Hz, read-out: Estimated IC50 (μM) 0.2 Hz
[12] = Table 4 summary, 0.2 Hz, L-type, unit not given in Table 4 (μM in Table 3), read-out: L (IC50 values)
[13] = α1C (L-type), 0.03 Hz, read-out: Estimated IC50 (μM) 0.03 Hz
[14] = α1C (L-type), 0.2 Hz, read-out: Estimated IC50 (μM) 0.2 Hz

T1 sequence (Q02294 whole entry): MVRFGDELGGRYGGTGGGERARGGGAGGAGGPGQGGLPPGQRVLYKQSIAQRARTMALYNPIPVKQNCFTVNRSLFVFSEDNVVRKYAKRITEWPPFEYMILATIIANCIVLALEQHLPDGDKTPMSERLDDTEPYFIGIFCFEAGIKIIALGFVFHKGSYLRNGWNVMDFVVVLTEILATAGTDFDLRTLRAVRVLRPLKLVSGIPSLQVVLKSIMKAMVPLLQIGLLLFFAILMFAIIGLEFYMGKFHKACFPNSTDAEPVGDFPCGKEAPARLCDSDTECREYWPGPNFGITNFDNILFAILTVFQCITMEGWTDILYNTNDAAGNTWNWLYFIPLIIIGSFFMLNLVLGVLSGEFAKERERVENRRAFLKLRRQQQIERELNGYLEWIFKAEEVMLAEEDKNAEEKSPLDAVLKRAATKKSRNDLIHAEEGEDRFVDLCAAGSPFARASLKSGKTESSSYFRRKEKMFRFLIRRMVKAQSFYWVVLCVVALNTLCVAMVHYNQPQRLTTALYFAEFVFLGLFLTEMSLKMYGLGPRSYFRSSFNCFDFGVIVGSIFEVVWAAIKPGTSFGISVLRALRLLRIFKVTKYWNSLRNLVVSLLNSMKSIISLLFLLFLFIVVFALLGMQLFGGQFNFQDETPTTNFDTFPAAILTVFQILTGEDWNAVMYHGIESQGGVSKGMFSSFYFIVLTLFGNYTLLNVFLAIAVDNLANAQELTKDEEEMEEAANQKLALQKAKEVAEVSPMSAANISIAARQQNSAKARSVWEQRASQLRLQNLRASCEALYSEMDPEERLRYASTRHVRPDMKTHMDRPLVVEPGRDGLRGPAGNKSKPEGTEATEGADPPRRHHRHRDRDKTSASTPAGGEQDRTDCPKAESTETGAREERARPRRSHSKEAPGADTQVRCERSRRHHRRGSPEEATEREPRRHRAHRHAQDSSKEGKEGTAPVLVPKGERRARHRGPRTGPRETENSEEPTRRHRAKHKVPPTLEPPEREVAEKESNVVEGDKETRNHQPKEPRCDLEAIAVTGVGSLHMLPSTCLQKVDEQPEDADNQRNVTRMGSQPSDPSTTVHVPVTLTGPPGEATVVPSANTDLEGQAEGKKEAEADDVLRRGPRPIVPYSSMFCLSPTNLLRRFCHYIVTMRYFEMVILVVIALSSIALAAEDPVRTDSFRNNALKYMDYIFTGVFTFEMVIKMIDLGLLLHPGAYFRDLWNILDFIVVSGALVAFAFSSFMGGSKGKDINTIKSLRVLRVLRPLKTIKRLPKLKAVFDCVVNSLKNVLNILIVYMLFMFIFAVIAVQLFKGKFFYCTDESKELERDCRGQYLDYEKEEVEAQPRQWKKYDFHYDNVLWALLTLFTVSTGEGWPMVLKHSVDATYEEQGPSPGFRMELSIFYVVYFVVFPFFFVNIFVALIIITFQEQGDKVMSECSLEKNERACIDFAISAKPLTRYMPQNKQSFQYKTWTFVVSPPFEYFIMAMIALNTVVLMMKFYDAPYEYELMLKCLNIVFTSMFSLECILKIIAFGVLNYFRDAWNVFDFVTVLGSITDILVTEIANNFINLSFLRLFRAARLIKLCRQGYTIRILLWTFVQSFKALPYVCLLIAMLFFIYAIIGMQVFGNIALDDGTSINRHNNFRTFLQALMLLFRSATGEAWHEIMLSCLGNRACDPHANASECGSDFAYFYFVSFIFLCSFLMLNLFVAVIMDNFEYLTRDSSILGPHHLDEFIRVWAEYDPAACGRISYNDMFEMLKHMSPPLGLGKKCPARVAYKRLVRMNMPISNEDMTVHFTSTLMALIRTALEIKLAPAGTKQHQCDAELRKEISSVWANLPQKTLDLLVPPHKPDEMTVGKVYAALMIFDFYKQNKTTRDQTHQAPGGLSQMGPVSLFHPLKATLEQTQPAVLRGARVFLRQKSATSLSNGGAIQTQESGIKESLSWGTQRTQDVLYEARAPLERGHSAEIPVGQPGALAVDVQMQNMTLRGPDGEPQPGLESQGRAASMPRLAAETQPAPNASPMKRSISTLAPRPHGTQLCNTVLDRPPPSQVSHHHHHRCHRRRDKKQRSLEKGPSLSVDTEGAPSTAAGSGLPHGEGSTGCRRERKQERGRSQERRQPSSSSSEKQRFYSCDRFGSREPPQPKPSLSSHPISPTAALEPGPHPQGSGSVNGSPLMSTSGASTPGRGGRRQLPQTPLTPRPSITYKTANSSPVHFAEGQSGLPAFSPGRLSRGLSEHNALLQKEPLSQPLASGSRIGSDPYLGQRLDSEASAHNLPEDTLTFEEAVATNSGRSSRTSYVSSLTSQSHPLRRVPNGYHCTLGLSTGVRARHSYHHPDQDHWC
T1 sequence (P54290 25-944 partner limits assumed): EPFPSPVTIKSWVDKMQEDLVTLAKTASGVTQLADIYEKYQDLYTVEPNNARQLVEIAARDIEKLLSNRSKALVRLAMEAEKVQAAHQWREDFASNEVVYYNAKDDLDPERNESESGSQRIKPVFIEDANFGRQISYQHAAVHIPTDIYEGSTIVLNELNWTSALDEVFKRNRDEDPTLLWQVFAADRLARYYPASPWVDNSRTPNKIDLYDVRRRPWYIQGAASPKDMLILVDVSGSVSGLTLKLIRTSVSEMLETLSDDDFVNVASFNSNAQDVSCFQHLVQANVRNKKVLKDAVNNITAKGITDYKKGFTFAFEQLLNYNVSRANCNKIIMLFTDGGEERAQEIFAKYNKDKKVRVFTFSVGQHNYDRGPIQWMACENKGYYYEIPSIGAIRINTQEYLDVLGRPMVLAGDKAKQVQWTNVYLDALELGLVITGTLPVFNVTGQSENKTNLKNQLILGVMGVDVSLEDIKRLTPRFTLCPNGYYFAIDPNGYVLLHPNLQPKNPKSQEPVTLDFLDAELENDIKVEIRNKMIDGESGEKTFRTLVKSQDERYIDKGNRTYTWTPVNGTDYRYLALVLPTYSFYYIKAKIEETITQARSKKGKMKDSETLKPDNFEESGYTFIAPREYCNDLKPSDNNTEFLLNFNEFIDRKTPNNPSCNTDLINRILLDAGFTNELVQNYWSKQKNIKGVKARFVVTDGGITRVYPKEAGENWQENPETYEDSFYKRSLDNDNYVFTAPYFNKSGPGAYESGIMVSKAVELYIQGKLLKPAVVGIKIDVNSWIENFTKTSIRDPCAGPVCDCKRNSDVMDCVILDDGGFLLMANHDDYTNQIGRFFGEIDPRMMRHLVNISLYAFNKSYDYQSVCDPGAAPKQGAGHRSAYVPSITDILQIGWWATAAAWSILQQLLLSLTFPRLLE
T1 sequence (P54290 945-1091 partner limits assumed): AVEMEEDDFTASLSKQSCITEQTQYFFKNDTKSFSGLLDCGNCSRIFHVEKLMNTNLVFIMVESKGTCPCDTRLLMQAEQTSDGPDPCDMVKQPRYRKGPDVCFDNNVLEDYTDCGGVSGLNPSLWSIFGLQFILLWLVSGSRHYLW
T1 sequence (P54283 whole entry partner): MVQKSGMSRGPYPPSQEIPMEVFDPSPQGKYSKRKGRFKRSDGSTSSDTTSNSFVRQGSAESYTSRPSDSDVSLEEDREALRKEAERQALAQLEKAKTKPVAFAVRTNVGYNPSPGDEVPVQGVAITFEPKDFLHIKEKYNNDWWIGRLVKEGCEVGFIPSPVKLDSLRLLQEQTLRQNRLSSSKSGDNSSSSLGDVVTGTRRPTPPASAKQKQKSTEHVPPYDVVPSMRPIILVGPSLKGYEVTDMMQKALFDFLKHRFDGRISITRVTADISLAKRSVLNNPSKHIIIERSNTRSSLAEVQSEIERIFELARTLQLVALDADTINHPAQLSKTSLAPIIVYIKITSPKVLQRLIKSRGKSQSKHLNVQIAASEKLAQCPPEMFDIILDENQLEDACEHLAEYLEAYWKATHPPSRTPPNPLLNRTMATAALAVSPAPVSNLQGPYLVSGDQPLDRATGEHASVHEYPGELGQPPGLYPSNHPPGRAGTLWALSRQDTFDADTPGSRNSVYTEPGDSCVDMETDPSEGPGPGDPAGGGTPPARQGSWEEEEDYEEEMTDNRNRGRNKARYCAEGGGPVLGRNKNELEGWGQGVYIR

SMILES	IC50 [1, 6]	% Block (100 nM) 0.03 Hz ([1]; α1A (P/Q-type), 0.03 Hz)	% Block (100 nM) 0.2 Hz ([1]; α1A (P/Q-type), 0.2 Hz)	IC50 [1, 7]	IC50 [1, 8]	IC50 values on P/Q-type channels compared with N-type (in words) [2]	N-type channel inhibition at higher frequencies (in words) ([3]; 0.2 Hz)	IC50 [3, 9]	% Block (100 nM) 0.03 Hz ([3]; α1B (N-type))	% Block (100 nM) 0.2 Hz ([3]; α1B (N-type))	IC50 [3, 10]	IC50 [3, 11]	IC50 [4, 12]	% Block (100 nM) 0.03 Hz ([4]; α1C (L-type), 0.03 Hz)	% Block (100 nM) 0.2 Hz ([4]; α1C (L-type), 0.2 Hz)	IC50 [4, 13]	IC50 [4, 14]	IC50 values on L-type channels compared with N-type (in words) [5]
O=C(CCCCC(c1ccccc1)c1ccccc1)N1CCN(C/C=C/c2ccccc2)CC1 [MC-34D]	0.08 µM	31%	56%	0.35 µM	0.08 µM	higher than those exhibited with respect to N-type channels	most potent inhibitors at higher frequencies	0.05 µM	47%	73%	0.12 µM	0.05 µM	0.39 µM	14%	24%	0.63 µM	0.39 µM	higher than those exhibited with respect to N-type channels
COc1cc(CN2CCN(CCCCCC(c3ccc(F)cc3)c3ccc(F)cc3)CC2)cc(OC)c1OC [39-45-3]	0.09 µM	27%	58%	0.41 µM	0.09 µM	higher than those exhibited with respect to N-type channels	most potent inhibitors at higher frequencies	0.03 µM	50%	79%	0.1 µM	0.03 µM	0.37 µM	15%	26%	0.74 µM	0.37 µM	higher than those exhibited with respect to N-type channels
O=C(CCCCC(c1ccccc1)c1ccccc1)N1CCC(NCC2CCCCC2)CC1 [JM-G-10]	0.07 µM	28%	62%	0.3 µM	0.07 µM	higher than those exhibited with respect to N-type channels	most potent inhibitors at higher frequencies	0.06 µM	38%	63%	0.17 µM	0.06 µM	0.3 µM	7%	15%	1.17 µM	0.3 µM	higher than those exhibited with respect to N-type channels
O=C(CC(c1ccccc1)c1ccccc1)N1CCN(C(c2ccccc2)c2ccccc2)CC1 [39-1-B4]	0.12 µM	31%	52%	0.65 µM	0.12 µM	higher than those exhibited with respect to N-type channels	most potent inhibitors at higher frequencies	0.04 µM	34%	72%	0.2 µM	0.04 µM	0.3 µM	19%	29%	0.5 µM	0.3 µM	higher than those exhibited with respect to N-type channels
